The source made the active and inactive calls. The rule behind the calls is not given here.
Experiments:
Pseudomonas aeruginosa [1] = assay: Bactericidal activity against Pseudomonas aeruginosa ATCC 27853 preincubated for 24 to 48 hrs followed by replating on MHA plates and measured after 18 hrs by broth microdilution assay; type: functional
Escherichia coli [2] = assay: Antimicrobial activity against Escherichia coli clinical isolate after 24 to 48 hrs by broth microdilution assay; type: functional
Streptococcus pyogenes [3] = assay: Antimicrobial activity against Streptococcus pyogenes ATCC 19615 after 24 to 48 hrs by broth microdilution assay; type: functional
Klebsiella pneumoniae [4] = assay: Antimicrobial activity against Klebsiella pneumoniae ATCC 13883 after 24 to 48 hrs by broth microdilution assay; type: functional
Acinetobacter baumannii [5] = assay: Bactericidal activity against Acinetobacter baumannii ATCC 19606 preincubated for 24 to 48 hrs followed by replating on MHA plates and measured after 18 hrs by broth microdilution assay; type: functional; settings: ATCC 19606 = CIP 70.34 = JCM 6841
Candida albicans = assay: Antifungal activity against Candida albicans ATCC 90029 after 24 to 48 hrs by broth microdilution assay; type: functional
Pseudomonas aeruginosa [6] = assay: Antimicrobial activity against Pseudomonas aeruginosa ATCC 27853 after 24 to 48 hrs by broth microdilution assay; type: functional
Escherichia coli [7] = assay: Antimicrobial activity against Escherichia coli ATCC 25922 after 24 to 48 hrs by broth microdilution assay; type: functional
Klebsiella pneumoniae [8] = assay: Bactericidal activity against Klebsiella pneumoniae ATCC 13883 preincubated for 24 to 48 hrs followed by replating on MHA plates and measured after 18 hrs by broth microdilution assay; type: functional
Staphylococcus aureus [9] = assay: Antimicrobial activity against methicillin-resistant Staphylococcus aureus clinical isolate after 24 to 48 hrs by broth microdilution assay; type: functional
Salmonella typhimurium [10] = assay: Bactericidal activity against Salmonella typhimurium WDCM 00031 preincubated for 24 to 48 hrs followed by replating on MHA plates and measured after 18 hrs by broth microdilution assay; type: functional, Salmonella enterica subsp. enterica serovar Typhimurium; settings: Salmonella enterica
Staphylococcus aureus [11] = assay: Bactericidal activity against methicillin-resistant Staphylococcus aureus clinical isolate preincubated for 24 to 48 hrs followed by replating on MHA plates and measured after 18 hrs by broth microdilution assay; type: functional
Streptococcus pyogenes [12] = assay: Bactericidal activity against Streptococcus pyogenes ATCC 19615 preincubated for 24 to 48 hrs followed by replating on MHA plates and measured after 18 hrs by broth microdilution assay; type: functional
Enterococcus faecalis [13] = assay: Antimicrobial activity against Enterococcus faecalis ATCC 29212 after 24 to 48 hrs by broth microdilution assay; type: functional
Klebsiella pneumoniae [14] = assay: Bactericidal activity against Klebsiella pneumoniae clinical isolate preincubated for 24 to 48 hrs followed by replating on MHA plates and measured after 18 hrs by broth microdilution assay; type: functional
Salmonella typhimurium [15] = assay: Antimicrobial activity against Salmonella typhimurium WDCM 00031 after 24 to 48 hrs by broth microdilution assay; type: functional, Salmonella enterica subsp. enterica serovar Typhimurium; settings: Salmonella enterica
Staphylococcus aureus [16] = assay: Antimicrobial activity against Staphylococcus aureus ATCC 29213 after 24 to 48 hrs by broth microdilution assay; type: functional
Listeria monocytogenes [17] = assay: Bactericidal activity against Listeria monocytogenes ATCC 19111 (1/2a) preincubated for 24 to 48 hrs followed by replating on MHA plates and measured after 18 hrs by broth microdilution assay; type: functional
Acinetobacter baumannii [18] = assay: Antimicrobial activity against Acinetobacter baumannii ATCC 19606 after 24 to 48 hrs by broth microdilution assay; type: functional; settings: ATCC 19606 = CIP 70.34 = JCM 6841
Klebsiella pneumoniae [19] = assay: Antimicrobial activity against Klebsiella pneumoniae clinical isolate after 24 to 48 hrs by broth microdilution assay; type: functional
Escherichia coli [20] = assay: Bactericidal activity against Escherichia coli clinical isolate preincubated for 24 to 48 hrs followed by replating on MHA plates and measured after 18 hrs by broth microdilution assay; type: functional
Escherichia coli [21] = assay: Bactericidal activity against Escherichia coli ATCC 25922 preincubated for 24 to 48 hrs followed by replating on MHA plates and measured after 18 hrs by broth microdilution assay; type: functional
Penicillium citrinum = assay: Antifungal activity against Penicillium citrinum after 24 to 48 hrs by broth microdilution assay; type: functional
Acinetobacter baumannii [22] = assay: Antimicrobial activity against Acinetobacter baumannii clinical isolate after 24 to 48 hrs by broth microdilution assay; type: functional
Acinetobacter baumannii [23] = assay: Bactericidal activity against Acinetobacter baumannii clinical isolate preincubated for 24 to 48 hrs followed by replating on MHA plates and measured after 18 hrs by broth microdilution assay; type: functional
Enterococcus faecalis [24] = assay: Bactericidal activity against Enterococcus faecalis ATCC 29212 preincubated for 24 to 48 hrs followed by replating on MHA plates and measured after 18 hrs by broth microdilution assay; type: functional
Aspergillus niger = assay: Antifungal activity against Aspergillus niger after 24 to 48 hrs by broth microdilution assay; type: functional
Staphylococcus aureus [25] = assay: Bactericidal activity against Staphylococcus aureus ATCC 29213 preincubated for 24 to 48 hrs followed by replating on MHA plates and measured after 18 hrs by broth microdilution assay; type: functional
Listeria monocytogenes [26] = assay: Antimicrobial activity against Listeria monocytogenes ATCC 19111 (1/2a) after 24 to 48 hrs by broth microdilution assay; type: functional
Staphylococcus aureus [27] = assay: Induction of morphological changes in Staphylococcus aureus ATCC 29213 assessed as cell wall damage at MIC after 1 hr by atomic force microscopic analysis; type: functional, organism-based
HeLa = assay: Cytotoxicity against human HeLa cells assessed as reduction in cell viability after 48 hrs by MTS assay; type: cell-based
HEK293 = assay: Cytotoxicity against HEK293 cells assessed as reduction in cell viability after 48 hrs by MTS assay; type: cell-based; settings: Homo sapiens, HEK293, 48 h

Compound `CCCCCCCCCC[N+]12CCC(CC1)C(O)C2.[Br-]` (centres undefined) has an MBC (Pseudomonas aeruginosa [1]) of 2000 µg/mL, an MIC (Escherichia coli [2]) of 500 µg/mL and an MIC (Streptococcus pyogenes [3]) of 15.6 µg/mL. It also gave an MIC (Klebsiella pneumoniae [4]) of 1000 µg/mL, an MBC (Acinetobacter baumannii [5]) of 1000 µg/mL and an MIC50 (Candida albicans) of 31.2 µg/mL. For the same compound, the MIC90 (Candida albicans) was 62.5 µg/mL, the MIC (Pseudomonas aeruginosa [6]) was 2000 µg/mL and the MIC (Escherichia coli [7]) was 250 µg/mL. For the same compound, the MBC (Klebsiella pneumoniae [8]) was 1000 µg/mL, the MIC (Staphylococcus aureus [9]) was 500 µg/mL and the MBC (Salmonella typhimurium [10]) was 1000 µg/mL. The MBC (Staphylococcus aureus [11]) was 500 µg/mL, the MBC (Streptococcus pyogenes [12]) was 15.6 µg/mL and the MIC (Enterococcus faecalis [13]) was 250 µg/mL. For the same compound, the MBC (Klebsiella pneumoniae [14]) was 1000 µg/mL, the MIC (Salmonella typhimurium [15]) was 1000 µg/mL and the MIC (Staphylococcus aureus [16]) was 125 µg/mL. For the same compound, the MBC (Listeria monocytogenes [17]) was 250 µg/mL, the MIC (Acinetobacter baumannii [18]) was 1000 µg/mL and the MIC (Klebsiella pneumoniae [19]) was 1000 µg/mL. It also gave an MBC (Escherichia coli [20]) of 500 µg/mL, an MBC (Escherichia coli [21]) of 250 µg/mL and an MIC50 (Penicillium citrinum) of 250 µg/mL. The MIC90 (Penicillium citrinum) was 500 µg/mL, the MIC (Acinetobacter baumannii [22]) was 500 µg/mL and the MBC (Acinetobacter baumannii [23]) was 1000 µg/mL. The MBC (Enterococcus faecalis [24]) was 250 µg/mL, the MIC50 (Aspergillus niger) was 125 µg/mL and the MIC90 (Aspergillus niger) was 250 µg/mL. It also gave an MBC (Staphylococcus aureus [25]) of 125 µg/mL and an MIC (Listeria monocytogenes [26]) of 250 µg/mL.
In the case of `CCCCCCCCCCCC[N+](C)(C)Cc1ccccc1.[Br-]`, the Activity (Staphylococcus aureus [27]) is reported as “Active”, the IC50 (HeLa) is reported as 3.98 µg/mL and the MIC (Escherichia coli [7]) is reported as 3.9 µg/mL. The IC50 (HEK293) was 1 µg/mL, the MIC (Staphylococcus aureus [16]) was 1.5 µg/mL and the MBC (Escherichia coli [21]) was 3.9 µg/mL. For the same compound, the MBC (Staphylococcus aureus [25]) was 1.5 µg/mL.
